According to patent US20250222044A1, “LIMOSILACTOBACILLUS REUTERI GOLDGUT-LR99 AND APPLICATION THEREOF” (priority 2024, published 2025):

What was measured:
[1] = test system: Limosilactobacillus reuteri GOLDGUT-LR99; test: Antibiotic sensitivity, K-B method (Kirby-Bauer method); assay type: cell-based; design: key to Antibiotic susceptibility test result: R represents resistance; S represents sensitivity; conditions: susceptibility of the strain to the antibiotic
Description: Antibiotic sensitivity of Limosilactobacillus reuteri GOLDGUT-LR99 was determined using the K-B method (Kirby-Bauer method).

[2] = test system: Limosilactobacillus reuteri GOLDGUT-LR99; test: Carbon source utilization and oxidation experiment (AN Biolog micro-pore plate); assay type: cell-based; conditions: substrate utilization by the strain, 37° C. anaerobic culture for 24 hours
Description: The AN Biolog micro-pore plate was used for measuring the utilization and oxidation conditions of different carbon sources of Limosilactobacillus reuteri GOLDGUT-LR99, the AN microplate used nutrients and biochemical reagents, and the method included the following steps: 1 mL of Limosilactobacillus reuteri GOLDGUT-LR99 bacterial liquid of the strain to be detected at the end of logarithmic growth was pipetted and centrifuged, then the supernatant was removed, the cells was washed three times with the seed liquid and suspended with 1 mL of the seed liquid, 50 μL of the suspension was taken and diluted in 10 mL of the seed liquid, the diluent was subpacked in a Biolog plate (100 μL/pore) after mixing uniformly, and the Biolog plate with the diluent was placed in 37° C. for anaerobic culture for 24 hours. After the culture was finished, OD590 and OD750 were detected by using microplate reader, the numerical values were recorded, and the utilization conditions of carbohydrate, organic acid and other substances of the Limosilactobacillus reuteri GOLDGUT-LR99 were calculated, wherein the calculation method was as follows: Y=OD590−OD750;

Compound: CC1(C)S[C@@H]2[C@H](NC(=O)[C@H](N)c3ccccc3)C(=O)N2[C@H]1C(=O)O [Ampicillin]
- Antibiotic susceptibility test result [1]: S
- antibiotic sensitivity (in words) [1]: sensitive

Compound: CC1(C)S[C@@H]2[C@H](NC(=O)Cc3ccccc3)C(=O)N2[C@H]1C(=O)O [Benzylpenicillin]
- Antibiotic susceptibility test result [1]: S

Compound: CC1(C)S[C@@H]2[C@H](NC(=O)C(C(=O)O)c3ccccc3)C(=O)N2[C@H]1C(=O)O (stereo partly drawn) [Carbenicillin]
- Antibiotic susceptibility test result [1]: S

Compound: Cc1nnc(SCC2=C(C(=O)O)N3C(=O)[C@@H](NC(=O)Cn4cnnn4)[C@H]3SC2)s1 [Cefazolin]
- Antibiotic susceptibility test result [1]: S

Compound: CCN1CCN(C(=O)N[C@@H](C(=O)N[C@@H]2C(=O)N3C(C(=O)O)=C(CSc4nnnn4C)CS[C@H]23)c2ccc(O)cc2)C(=O)C1=O [Cefperazone]
- Antibiotic susceptibility test result [1]: S

Compound: CC1=C(C(=O)O)N2C(=O)[C@@H](NC(=O)[C@H](N)C3=CCC=CC3)[C@H]2SC1 [Cefradine]
- Antibiotic susceptibility test result [1]: S

Compound: CC(C)(O/N=C(\C(=O)N[C@@H]1C(=O)N2C(C(=O)[O-])=C(C[n+]3ccccc3)CS[C@H]12)c1csc(N)n1)C(=O)O [Ceftazidime]
- Antibiotic susceptibility test result [1]: S

Compound: CO/N=C(\C(=O)N[C@@H]1C(=O)N2C(C(=O)O)=C(CSc3nc(=O)c(=O)[nH]n3C)CS[C@H]12)c1csc(N)n1 [Ceftriaxone]
- Antibiotic susceptibility test result [1]: S

Compound: CO/N=C(\C(=O)N[C@@H]1C(=O)N2C(C(=O)O)=C(COC(N)=O)CS[C@H]12)c1ccco1 [Cefuroxime]
- Antibiotic susceptibility test result [1]: S

Compound: CC1=C(C(=O)O)N2C(=O)[C@@H](NC(=O)[C@H](N)c3ccccc3)[C@H]2SC1 [Cephalexin]
- Antibiotic susceptibility test result [1]: S

Compound: O=C(N[C@H](CO)[C@H](O)c1ccc([N+](=O)[O-])cc1)C(Cl)Cl [Chloramphenicol]
- Antibiotic susceptibility test result [1]: S

Compound: O=C(O)c1cn(C2CC2)c2cc(N3CCNCC3)c(F)cc2c1=O [Ciprofloxacin]
- Antibiotic susceptibility test result [1]: R

Compound: CCC[C@@H]1C[C@@H](C(=O)N[C@@H]([C@H]2O[C@H](SC)[C@H](O)[C@@H](O)[C@H]2O)[C@H](C)Cl)N(C)C1 [Clindamycin]
- Antibiotic susceptibility test result [1]: R

Compound: C[C@H]1c2cccc(O)c2C(=O)C2=C(O)[C@]3(O)C(=O)C(C(N)=O)=C(O)[C@@H](N(C)C)[C@@H]3[C@@H](O)[C@@H]21 [Doxycycline]
- Antibiotic susceptibility test result [1]: S

Compound: CC[C@H]1OC(=O)[C@H](C)[C@@H](O[C@H]2C[C@@](C)(OC)[C@@H](O)[C@H](C)O2)[C@H](C)[C@@H](O[C@@H]2O[C@H](C)C[C@H](N(C)C)[C@H]2O)[C@](C)(O)C[C@@H](C)C(=O)[C@H](C)[C@@H](O)[C@]1(C)O [Erythromycin]
- Antibiotic susceptibility test result [1]: R

Compound: O=C1OCCN1/N=C/c1ccc([N+](=O)[O-])o1 [Furazolidone]
- Antibiotic susceptibility test result [1]: S

Compound: NC[C@H]1O[C@H](O[C@H]2[C@H](O)[C@@H](O[C@H]3O[C@H](CO)[C@@H](O)[C@H](N)[C@H]3O)[C@H](N)C[C@@H]2N)[C@H](O)[C@@H](O)[C@@H]1O [Kanamycin]
- Antibiotic susceptibility test result [1]: S

Compound: CCC(=O)O[C@@H]1CC(=O)O[C@H](C)C/C=C/C=C/[C@H](O)[C@H](C)C[C@H](CC=O)[C@H](O[C@@H]2O[C@H](C)[C@@H](O[C@H]3C[C@@](C)(O)[C@@H](OC(=O)CC)[C@H](C)O3)[C@H](N(C)C)[C@H]2O)[C@H]1OC [Midecamycin]
- Antibiotic susceptibility test result [1]: R

Compound: CN(C)c1ccc(O)c2c1C[C@H]1C[C@H]3[C@H](N(C)C)C(O)=C(C(N)=O)C(=O)[C@@]3(O)C(O)=C1C2=O [Minocycline]
- Antibiotic susceptibility test result [1]: S

Compound: CCn1cc(C(=O)O)c(=O)c2cc(F)c(N3CCNCC3)cc21 [Norfloxacin]
- Antibiotic susceptibility test result [1]: R

Compound: CC1COc2c(N3CCN(C)CC3)c(F)cc3c(=O)c(C(=O)O)cn1c23 (stereo not drawn) [Ofloxacin]
- Antibiotic susceptibility test result [1]: R

Compound: CCN1CCN(C(=O)N[C@@H](C(=O)N[C@@H]2C(=O)N3[C@@H]2SC(C)(C)[C@@H]3C(=O)O)c2ccccc2)C(=O)C1=O [Piperacillin]
- Antibiotic susceptibility test result [1]: S

Compound: α-Succinic acid
- Utilization (Y=OD590−OD750) [2]: − (when Y < 0.05, it is shown that the strain was not able to utilize this substance, marked as −)
